Data on seven compounds can be found in patent publication US20220106275A1, “RADIOLABELED COMPOUNDS AND USES THEREOF” (The Trustees of Columbia University in the City of New York, priority 2019, published 2022).

In data set [1] the target is T1, COX-2 (Homo sapiens, UniProt P35354).
T1 sequence (P35354 18-604): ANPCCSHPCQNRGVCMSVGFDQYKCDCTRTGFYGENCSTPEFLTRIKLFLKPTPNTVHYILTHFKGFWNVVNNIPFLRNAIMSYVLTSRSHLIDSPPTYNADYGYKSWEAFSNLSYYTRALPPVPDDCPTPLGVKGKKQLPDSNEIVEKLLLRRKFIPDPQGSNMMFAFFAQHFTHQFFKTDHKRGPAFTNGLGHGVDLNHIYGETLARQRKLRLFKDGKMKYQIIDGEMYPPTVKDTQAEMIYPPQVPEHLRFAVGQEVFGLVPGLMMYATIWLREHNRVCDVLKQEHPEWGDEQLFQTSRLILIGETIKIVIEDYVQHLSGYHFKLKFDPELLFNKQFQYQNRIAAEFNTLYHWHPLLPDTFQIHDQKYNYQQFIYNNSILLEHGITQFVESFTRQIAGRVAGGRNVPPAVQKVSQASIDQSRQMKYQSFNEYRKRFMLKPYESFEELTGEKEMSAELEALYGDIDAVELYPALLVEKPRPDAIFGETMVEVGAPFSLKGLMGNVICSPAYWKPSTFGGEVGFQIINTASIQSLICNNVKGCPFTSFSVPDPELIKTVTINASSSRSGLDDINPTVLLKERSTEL
The conditions noted are these: cited from earlier work.

The subject of the next data set is xenografts. The conditions noted are these: cited from earlier work.
Data set [2] concerns COX-2. Conditions: cited from earlier work.
Data set [3] has as its system COX-2. The conditions noted are these: baboon brain; cited from earlier work.
Data set [4] concerns COX-2-negative PANC-1 cells. Description: Cell uptake of [18F]FMTP in COX-2-negative PANC-1 cells, with blocking. It counts as cell-based, human. The protocol:
(§1) The radiochemical synthesis of [^18F]FMTP and [^18F]FMPP were optimized using a chlorine-to-fluorine displacement method, by reacting ^18F-fluoride/K222/K2CO3 with the corresponding chlorine precursor molecules. […] Dynamic microPET image acquisition was performed in anesthetized nude mice, LPS-induced neuroinflammation mice, and PBS-administered control mice using […].
BxPC3 and PANC-1 human pancreas carcinoma cell lines were plated on a 24-well plate at 2×10^5 cells/well. After 48 hours, [^18F]FMTP was added (2.0 μCi/mL) to the cell medium for 30 minutes. […] After incubation with [^18F]FMTP, cells were washed 4 times with cold PBS, lysed with 0.1 N NaOH, and counted in a gamma counter (Hidex AMG, LabLogic, Tampa, Fla.).
Proof-of-concept and selectivity of [^18F]FMTP binding to COX-2 was examined by evaluating the tracer uptake in COX-2-positive BxPC3 and a control COX-2-negative PANC1 human pancreatic carcinoma cell lines. FIG. 2 illustrates a >2-fold uptake of [^18F]FMTP in BxPC3 cells compared with PANC1 cells. Values shown in FIG. 2 are the mean±standard deviation (“SD”) from four independent experiments.

Data set [5] deals with T2, COX-2 (Mus musculus, UniProt Q05769).
T2 construct: from tissue; host or cells: brain of living male white mice, LPS- or PBS-injected
T2 sequence (Q05769 18-604): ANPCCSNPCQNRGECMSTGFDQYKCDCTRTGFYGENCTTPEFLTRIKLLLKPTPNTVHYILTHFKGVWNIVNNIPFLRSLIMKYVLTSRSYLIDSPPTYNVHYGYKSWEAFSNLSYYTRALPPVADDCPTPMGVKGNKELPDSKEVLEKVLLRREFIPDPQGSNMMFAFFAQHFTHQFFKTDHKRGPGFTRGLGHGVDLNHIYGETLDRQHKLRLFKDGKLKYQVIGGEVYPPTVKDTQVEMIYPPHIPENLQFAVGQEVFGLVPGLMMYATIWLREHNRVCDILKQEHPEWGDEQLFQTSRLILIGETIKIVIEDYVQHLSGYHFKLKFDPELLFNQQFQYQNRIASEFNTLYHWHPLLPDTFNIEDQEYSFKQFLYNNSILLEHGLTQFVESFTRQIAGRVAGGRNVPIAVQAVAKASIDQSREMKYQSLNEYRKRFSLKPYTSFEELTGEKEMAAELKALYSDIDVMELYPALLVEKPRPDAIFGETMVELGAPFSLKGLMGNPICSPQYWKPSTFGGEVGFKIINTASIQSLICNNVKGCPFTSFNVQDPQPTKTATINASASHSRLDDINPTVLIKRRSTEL
Description: MicroPET imaging of [18F]FMTP in LPS-induced neuroinflammation mice vs PBS-treated mice. It counts as in vivo. The conditions noted are these: 24 hours after intracranial 5 μg LPS (FIG. 5). The protocol: as §1
Animals (male white mice) were anesthetized with isoflurane (l %-2% isoflurane in 100% oxygen) using a nose cone, and a 29-gauge needle connected to a catheter was placed into the lateral tail vein. For neuroinflammation, mice were stereotactically injected with 5 μg of LPS or PBS (controls) in the brain and imaging experiments conducted 24 hours later. […] The standardized uptake values (“SUVs”) were estimated using a calibration factor calculated from the phantom study and time activity curves (“TACs”) were derived from VOIs in the series of reconstructed images.
FIGS. 3A-3D show the summed early frames (0-10 minute) and total frames (0-40 minute) of microPET images. […] TACs also indicated an initial rapid influx of radioactivity followed by rapid washout (FIG. 4). […] Highest radioactivity outside the heart was found in liver, and the delay to peak at 5-10 minutes was probably due to the accumulation of radioactive metabolite(s). […]

Data set [6] deals with COX-2-positive BxPC3 cells. As to the kind of experiment: Cell uptake of [18F]FMTP in COX-2-positive BxPC3 cells, with blocking. Type of data set: cell-based, human.
Data set [7] is described as follows: Dynamic microPET imaging of [18F]FMTP in normal mice. It counts as in vivo. The protocol: as §1
Animals (male white mice) were anesthetized with isoflurane (l %-2% isoflurane in 100% oxygen) using a nose cone, and a 29-gauge needle connected to a catheter was placed into the lateral tail vein. For neuroinflammation, mice were stereotactically injected with 5 μg of LPS or PBS (controls) in the brain and imaging experiments conducted 24 hours later. The animal was placed in prone position on the platform of the scanner and moved into the center of the field of view guided by laser beam calibration. Immediately after scan start, [^18F]FMTP (˜2.5 MBq […] in 20% ethanol-saline solution) was injected through the tail-vein catheter manually. The error caused by the injector and catheter was corrected by subtracting the remaining dose. 40-minute dynamic imaging was acquired on a microPET scanner (Siemens Inveon). The acquired list-mode data were reconstructed with 3D ordered subset expectation maximization (OSEM) algorithm using the software of Siemens Inveon Acquisition Workplace with a framing protocol of 2×30 seconds, 4×60 seconds, 3×120 seconds, 3×180 seconds, and 4×300 seconds. Using PMOD software (version 4.0, Switzerland), three-dimensional ellipsoid volume of interests (“VOIs”) ranging from 2-to-6 mm were placed manually at the center of the brain, heart (blood-pool), liver, proximal humerus (bone), and posterior cervical muscle. The standardized uptake values (“SUVs”) were estimated using a calibration factor calculated from the phantom study and time activity curves (“TACs”) were derived from VOIs in the series of reconstructed images.
FIGS. 3A-3D show the summed early frames (0-10 minute) and total frames (0-40 minute) of microPET images. Crosses in FIGS. 3A-3D represent the region with brain. […] TACs also indicated an initial rapid influx of radioactivity followed by rapid washout (FIG. 4). The uptake of [^18F]FMTP peaked around 1 minute in heart and brain, and then decreased rapidly. The absence of retention of [^18F]FMTP activity in these organs was predicted due to low COX-2 expression in normal mouse brain. Highest radioactivity outside the heart was found in liver, and the delay to peak at 5-10 minutes was probably due to the accumulation of radioactive metabolite(s). […] The binding of [^18F]FMTP in LPS-induced neuroinflammation in mice was studied in comparison to vehicle (PBS)-treated-mice. Intracranial injection of LPS in mice is known to generate COX-2 induction and neuroinflammation after around 24 hours. Therefore, PET imaging of LPS treated mice was performed after 24 hours with [^18F]FMTP, and an approximately 2-fold increase of tracer binding was found in brain compared with PBS-treated mice (FIG. 5). […] MicroPET data correlated with autoradiography performed in brain sections of microPET imaged animals using [^18F]FMTP.

One may read the IC50 as the concentration needed to halve the response being measured. Turning to `CS(=O)(=O)c1ccc(-c2nc(F)cc(NCc3nccs3)n2)cc1` [[^18F]FMTP, [^18F]-6-fluoro-2-(4-(methylsulfonyl)phenyl)-N-(thiazol-2-ylmethyl)pyrimidin-4-amine], at COX-2 [1], the IC50 is 2.5 nM.
For the compound `CS(=O)(=O)c1ccc(-c2cc(C(F)(F)F)nc(NCc3ccc([18F])cc3)n2)cc1` [[^18F]Pyricoxib], the “binding in xenografts in vivo” value in the data set with xenografts is recorded as “only modest binding”. In the data set with xenografts (in vivo), the uptake in brain entry was “did not show significant uptake in brain”.
With `CS(=O)(=O)c1ccc(-c2nc(NCc3cccs3)cc(O[11CH3])n2)cc1` [[^11C]MC1, [^11C]-6-methoxy-2-(4-(methylsulfonyl)phenyl)-N-(thiophen-2-ylmethyl)pyrimidin-4-amine], the “binding to COX-2 in neuroinflammation” value in the data set with COX-2 [2] (animal models of neuroinflammation) was “increased binding to COX-2”. Also, the “detection of constitutive or low level COX-2 in brain” value with COX-2 [2] (conditions without inflammation) is “failed to detect”.
For `CS(=O)(=O)c1ccc(-c2noc(C(F)(F)F)c2-c2ccccc2)cc1` [[^11C]TMI, [^11C]-3-(4-methylsulfonylphenyl)-4-phenyl-5-trifluoromethyl isoxazole], the “blocking of constitutive COX-2 level in brain” value with COX-2 [3] is “partial blocking”.
As for `CS(=O)(=O)c1ccc(-c2nc([18F])cc(NCc3nccs3)n2)cc1` [[^18F]FMTP, [^18F]-6-fluoro-2-(4-(methylsulfonyl)phenyl)-N-(thiazol-2-ylmethyl)pyrimidin-4-amine], the “binding to PANC1 cells” value in data set [4] (2.0 μCi/mL, 30 minutes) is “negligible binding”. Besides, in data set [4] (blockers 5 μM), the “specific binding in PANC1 cells with FMTP or celecoxib block” value was “no specific binding”. Further, the “increase of tracer binding in brain of LPS-treated compared with PBS-treated mice” value at COX-2 [5] was “approximately 2 fold”. In addition, the “uptake of [18F]FMTP in BxPC3 cells compared with PANC1 cells” value in data set [6] (2.0 μCi/mL, 30 minutes, mean of four independent experiments (FIG. 2)) was above 2 fold. Moreover, the “uptake in spine and skeleton (de[18F]fluorination)” value in data set [7] (microPET) is “did not show uptake in spine and skeleton”. Also, in data set [7] (microPET, 0-40 minute), the “washout of activity from brain” value is listed as “fast washout”. Besides, the BBB penetration entry in data set [7] (microPET, tail-vein injection) is “penetrated the BBB”. Besides, the “time of peak uptake in heart and brain” value in data set [7] (time activity curves (FIG. 4)) is on record as “around 1 minute”. In addition, in data set [7] (time activity curves, delay ascribed to radioactive metabolite(s)), the “time of peak radioactivity in liver” value was in the range of 5 to 10 min.
As to `COc1cc(NCc2cccs2)nc(-c2ccc(S(C)(=O)=O)cc2)n1` [MC1], the “specific binding in CNS and periphery organs” value in the data set with COX-2 [2] (cold (non-radiolabeled) MC1) is recorded as “no specific binding”.
Turning to `CS(=O)(=O)c1ccc(-c2nc(F)cc(NCc3nccs3)n2)cc1` [FMTP], the “blocking of [18F]FMTP binding in BxPC3 cells” value in data set [6] (blocker 5 μM added 30 minutes before [18F]FMTP) was “substantially blocked”.
